# Measured values published in paper PMC12042115 (mLife, 2025).
# Test system: wild‐type BCG cells
# Format: cell-based, M. bovis BCG
# Conditions: up-regulated
structure (smiles),measurement,setting,value
O=C(Oc1ccc(Cl)cc1)c1ccc(N2CCOCC2)c([N+](=O)[O-])c1 [GDI‐5755],"Mean_Ratio (GDI5755_3d vs DMSO_3d), protein BCG_3567c","A0A0H3M9P9, Mtb Rv3503c, Ferredoxin, fdxD",1.7
same,"Mean_Ratio (GDI5755_3d vs DMSO_3d), protein BCG_0108c","A0A0H3M9Q4, Mtb Rv0077c, Probable oxidoreductase",1.7
same,"Mean_Ratio (GDI5755_3d vs DMSO_3d), protein BCG_0192","A0A0H3M9W8, Mtb Rv0156, proton-translocating NAD(P)(+) transhydrogenase,pntAb",1.4
same,"Mean_Ratio (GDI5755_3d vs DMSO_3d), protein BCG_0727","A0A0H3M257, Mtb Rv0678, Transcriptional regulator, MmpR5",1.5
same,"Mean_Ratio (GDI5755_3d vs DMSO_3d), protein BCG_0761","A0A0H3M268, Mtb Rv0711, Possible arylsulfatase atsA",2.1
same,"Mean_Ratio (GDI5755_3d vs DMSO_3d), protein BCG_0463c","A0A0H3M270, Mtb Rv0424c, Uncharacterized protein",1.4
same,"Mean_Ratio (GDI5755_3d vs DMSO_3d), protein BCG_0835","A0A0H3M322, Mtb Rv0784, Deacetylase",1.4
same,"Mean_Ratio (GDI5755_3d vs DMSO_3d), protein BCG_0351","A0A0H3M331, Mtb MRA_0320, Uncharacterized protein",1.5
same,"Mean_Ratio (GDI5755_3d vs DMSO_3d), protein BCG_0391","A0A0H3M380, Mtb Rv0352, Chaperone protein DnaJ",1.5
same,"Mean_Ratio (GDI5755_3d vs DMSO_3d), protein BCG_1609","A0A0H3M480, Mtb Rv1557, conserved transmembrane transport protein mmpL6",1.6
same,"Mean_Ratio (GDI5755_3d vs DMSO_3d), protein BCG_2010c","A0A0H3M561, Mtb Rv1993c, DUF1490 family protein",1.8
same,"Mean_Ratio (GDI5755_3d vs DMSO_3d), protein BCG_2346c","A0A0H3M622, Mtb Rv2325c, Energy-coupling factor transporter transmembrane protein EcfT",1.8
same,"Mean_Ratio (GDI5755_3d vs DMSO_3d), protein BCG_2009c","A0A0H3M639, Mtb Rv1992c, Probable metal cation transporter P-type atpase G ctpG",1.3
same,"Mean_Ratio (GDI5755_3d vs DMSO_3d), protein BCG_1549","A0A0H3M660, Mtb MRA_1496, Conserved membrane protein",1.5
same,"Mean_Ratio (GDI5755_3d vs DMSO_3d), protein BCG_2360c","A0A0H3M719, Mtb Rv2338c, Possible molybdopterin biosynthesis protein moeW",1.4
same,"Mean_Ratio (GDI5755_3d vs DMSO_3d), protein BCG_2455","A0A0H3M775, Mtb Rv2436, Ribokinase, rbsK",1.3
same,"Mean_Ratio (GDI5755_3d vs DMSO_3d), protein BCG_0465c","A0A0H3M812, Mtb MRA_0431, Possible transmembrane protein",1.7
same,"Mean_Ratio (GDI5755_3d vs DMSO_3d), protein BCG_0517","A0A0H3M881, Mtb Rv0476, Possible conserved transmembrane protein",1.4
same,"Mean_Ratio (GDI5755_3d vs DMSO_3d), protein BCG_2934c","A0A0H3M896, Mtb Rv2913c, Possible D-amino acid aminohydrolase",1.4
same,"Mean_Ratio (GDI5755_3d vs DMSO_3d), protein BCG_0993","A0A0H3M955, Mtb Rv0939, Possible bifunctional enzyme: 2-hydroxyhepta-2,4-diene-1,7-dioate isomerase + cyclase/dehydrase",1.3
same,"Mean_Ratio (GDI5755_3d vs DMSO_3d), protein BCG_3532","A0A0H3M969, HNH nuclease domain-containing protein",1.4
same,"Mean_Ratio (GDI5755_3d vs DMSO_3d), protein BCG_3038","A0A0H3MA42, Mtb Rv3016, Probable lipoprotein lpqA",1.3
same,"Mean_Ratio (GDI5755_3d vs DMSO_3d), protein BCG_0289c","A0A0H3MA45, Mtb Rv0251c, HSP20 family protein/ Heat stress induced ribosome-binding protein A,acr2",3.9
same,"Mean_Ratio (GDI5755_3d vs DMSO_3d), protein BCG_3881","A0A0H3MA52, Mtb Rv3819, Uncharacterized protein",1.4
same,"Mean_Ratio (GDI5755_3d vs DMSO_3d), protein BCG_3758","A0A0H3MAA8, Mtb Rv3699, Methyltransferase domain-containing protein",1.3
same,"Mean_Ratio (GDI5755_3d vs DMSO_3d), protein BCG_0380","A0A0H3MAC3, Mtb Rv0341, Isoniazid inductible gene protein iniB",1.7
same,"Mean_Ratio (GDI5755_3d vs DMSO_3d), protein BCG_0413c","A0A0H3MAE2, Mtb Rv0375c, carbon monoxyde dehydrogenase (Medium chain)",1.6
same,"Mean_Ratio (GDI5755_3d vs DMSO_3d), protein BCG_0595c","A0A0H3MAN8, Mtb Rv0550c, Antitoxin VapB3",1.4
same,"Mean_Ratio (GDI5755_3d vs DMSO_3d), protein BCG_3239","A0A0H3MAP0, Conserved hypothetical alanine valine rich protein",1.4
same,"Mean_Ratio (GDI5755_3d vs DMSO_3d), protein BCG_3281c","A0A0H3MAS0, Mtb Rv3252c, transmembrane alkane 1-monooxygenase alkB",1.5
same,"Mean_Ratio (GDI5755_3d vs DMSO_3d), protein BCG_3298","A0A0H3MAT3, Mtb Rv3269, peptidoglycan-based cell wall/chaperonin-like protein,pacL1",2.3
same,"Mean_Ratio (GDI5755_3d vs DMSO_3d), protein BCG_3319c","A0A0H3MAV3, Mtb Rv3290c, L-lysine 6-transaminase, lat",1.7
same,"Mean_Ratio (GDI5755_3d vs DMSO_3d), protein BCG_3928","A0A0H3MAW6, Mtb Rv3865, ESX-1 secretion-associated protein EspF",1.6
same,"Mean_Ratio (GDI5755_3d vs DMSO_3d), protein BCG_0725c","A0A0H3MAX0, Mtb Rv0676c,, conserved transmembrane transport protein mmpL5",1.6
same,"Mean_Ratio (GDI5755_3d vs DMSO_3d), protein BCG_0774","A0A0H3MAY5, Mtb Rv0724, Possible protease IV sppA (Endopeptidase IV)",1.4
same,"Mean_Ratio (GDI5755_3d vs DMSO_3d), protein BCG_3476","A0A0H3MB64, Mtb Rv3406, Probable dioxygenase",1.6
same,"Mean_Ratio (GDI5755_3d vs DMSO_3d), protein BCG_1890c","A0A0H3MB87, Mtb Rv1854c, NADH dehydrogenase ndh",1.5
same,"Mean_Ratio (GDI5755_3d vs DMSO_3d), protein BCG_3590","A0A0H3MBE7, Mtb Rv3526, Rieske-type oxygenase",1.4
same,"Mean_Ratio (GDI5755_3d vs DMSO_3d), protein BCG_2026","A0A0H3MBK2, Mtb Rv2009, Antitoxin VapB15, BCG_2026",1.4
same,"Mean_Ratio (GDI5755_3d vs DMSO_3d), protein BCG_2056c","A0A0H3MBM9, Mtb MRA_2052, conserved transmembrane protein",1.4
same,"Mean_Ratio (GDI5755_3d vs DMSO_3d), protein BCG_1028c","A0A0H3MBR5, Mtb Rv0974c, Probable acetyl-/propionyl-coa carboxylase (Beta subunit) accD2",1.4
same,"Mean_Ratio (GDI5755_3d vs DMSO_3d), protein BCG_3824c","A0A0H3MBY6, Mtb Rv3765c, Two component transcriptional regulatory protein，TcrX",1.4
same,"Mean_Ratio (GDI5755_3d vs DMSO_3d), protein BCG_1101c","A0A0H3MBZ0, Mtb Rv1043c, Serine protease，BCG_1101c",1.4
same,"Mean_Ratio (GDI5755_3d vs DMSO_3d), protein BCG_2613","A0A0H3MCY6, Mtb Rv2590, Carboxylic acid reductase,fadD9",1.6
same,"Mean_Ratio (GDI5755_3d vs DMSO_3d), protein BCG_2656","A0A0H3MD16, Mtb Rv2629, Uncharacterized protein",1.4
same,"Mean_Ratio (GDI5755_3d vs DMSO_3d), protein BCG_3528","A0A0H3MEV5, Mtb Rv3463, Luciferase-like domain-containing protein",1.4
same,"Mean_Ratio (GDI5755_3d vs DMSO_3d), protein BCG_2486c","A0A0H3MFK9, Mtb Rv2466c, DSBA-like thioredoxin domain-containing protein",1.7
same,"Mean_Ratio (GDI5755_3d vs DMSO_3d), protein BCG_2502c","A0A0H3MFM6, Mtb Rv2484c, Diacylglycerol O-acyltransferase",1.4
same,"Mean_Ratio (GDI5755_3d vs DMSO_3d), protein BCG_2658","A0A0H3MG12, Mtb Rv2631, tRNA-splicing ligase RtcB",1.4
same,"Mean_Ratio (GDI5755_3d vs DMSO_3d), protein BCG_2794c","A0A0H3MGD9, Mtb Rv2777c, Metal-dependent hydrolase",1.5
same,"Mean_Ratio (GDI5755_3d vs DMSO_3d), protein BCG_2984","A0A0H3MGS1, Mtb Rv2963, integral membrane protein",1.5
same,"Mean_Ratio (GDI5755_3d vs DMSO_3d), protein BCG_3119c","A0A0H3MH35, Mtb Rv3094c, Hydroxylase",1.4
same,"Mean_Ratio (GDI5755_3d vs DMSO_3d), protein BCG_3299","A0A0H3MHJ0, Mtb Rv3270, metal cation-transporting P-type atpase C ctpC",1.5
same,"Mean_Ratio (GDI5755_3d vs DMSO_3d), protein BCG_3591","A0A0H3MID2, Mtb Rv3527, Uncharacterized protein",1.6
same,"Mean_Ratio (GDI5755_3d vs DMSO_3d), protein BCG_3917c","A0A0H3MJE2, Mtb Rv3854c, Monooxygenase ethA",1.5
same,"Mean_Ratio (GDI5755_3d vs DMSO_3d), protein BCG_0095","A1KEN2, Mtb Rv0064, UPF0182 protein BCG_0095",1.4
same,"Mean_Ratio (GDI5755_3d vs DMSO_3d), protein BCG_0181","A1KEW5, Mtb Rv0145, S-adenosyl-L-methionine-dependent methyltransferase BCG_0181",1.8
same,"Mean_Ratio (GDI5755_3d vs DMSO_3d), protein BCG_0182","A1KEW6, Mtb Rv0146, Putative S-adenosyl-L-methionine-dependent methyltransferase",2.8
same,"Mean_Ratio (GDI5755_3d vs DMSO_3d), protein BCG_0248","A1KF31, Mtb Rv0211, Phosphoenolpyruvate carboxykinase [GTP], pckG",2.3
same,"Mean_Ratio (GDI5755_3d vs DMSO_3d), protein BCG_0389","A1KFH2, Mtb Rv0350, Chaperone protein DnaK/Heat shock protein 70",1.5
same,"Mean_Ratio (GDI5755_3d vs DMSO_3d), protein BCG_0390","A1KFH3, Mtb Rv0351, Protein GrpE/HSP-70 cofactor",1.4
same,"Mean_Ratio (GDI5755_3d vs DMSO_3d), protein BCG_0516","A1KFU9, Mtb Rv0475, Heparin-binding hemagglutinin",1.3
same,"Mean_Ratio (GDI5755_3d vs DMSO_3d), protein BCG_0605c","A1KG37, Mtb Rv0560c, Benzoquinone methyltransferase/Rv0560c/htm",2.5
same,"Mean_Ratio (GDI5755_3d vs DMSO_3d), protein BCG_0883","A1KGW3, Mtb Rv0830, S-adenosyl-L-methionine-dependent methyltransferase",1.9
same,"Mean_Ratio (GDI5755_3d vs DMSO_3d), protein BCG_1036","A1KHB7, Mtb Rv0981, Response regulator MprA",1.4
same,"Mean_Ratio (GDI5755_3d vs DMSO_3d), protein BCG_1284","A1KI12, Mtb Rv1224, Sec-independent protein translocase protein TatB",1.4
